One assay has as its target PI3K (Homo sapiens, UniProt P42336). Put plainly: Fluorescence polarization assay for PI3K.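 Further: PI3K kinase reaction on PIP2 with ATP, 30-60 min, product sensed by GST-GRP with red probe in fluorescence polarization (mP), controls without enzyme and at zero time.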 The following applies: PI3Kα; read-out: PI3Kα IC50. The assay is classed as biochemical. On the technique in general: Polarisation of emitted light reports the rotation of a fluorescent probe.
Another assay has as its system prostate line LNCap. Briefly: In vitro cell culture growth assay (MTS), LNCap.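 Further: viable cell density read by absorbance at 490 nm, growth expressed as percent of vehicle-treated cells on the same plate.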 The assay is classed as cell-based, human. The following applies: Homo sapiens, LNCaP, 72 h, LNCap cells, three days after drug treatment.
Another assay deals with breast line MDA468. Put plainly: In vitro cell culture growth assay (MTS), MDA468. The assay is classed as cell-based, human. The following applies: Homo sapiens, 72 h, MDA468 cells, three days after drug treatment. In short, it runs like this: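 Steps: plate cells; add inhibitors the next day; incubate 3 days; add MTS dye, which viable cells convert metabolically; measure absorbance at 490 nm; calculate percent of control growth relative to vehicle-treated cells in the same plate.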

Chain of PI3K (P42336 whole entry): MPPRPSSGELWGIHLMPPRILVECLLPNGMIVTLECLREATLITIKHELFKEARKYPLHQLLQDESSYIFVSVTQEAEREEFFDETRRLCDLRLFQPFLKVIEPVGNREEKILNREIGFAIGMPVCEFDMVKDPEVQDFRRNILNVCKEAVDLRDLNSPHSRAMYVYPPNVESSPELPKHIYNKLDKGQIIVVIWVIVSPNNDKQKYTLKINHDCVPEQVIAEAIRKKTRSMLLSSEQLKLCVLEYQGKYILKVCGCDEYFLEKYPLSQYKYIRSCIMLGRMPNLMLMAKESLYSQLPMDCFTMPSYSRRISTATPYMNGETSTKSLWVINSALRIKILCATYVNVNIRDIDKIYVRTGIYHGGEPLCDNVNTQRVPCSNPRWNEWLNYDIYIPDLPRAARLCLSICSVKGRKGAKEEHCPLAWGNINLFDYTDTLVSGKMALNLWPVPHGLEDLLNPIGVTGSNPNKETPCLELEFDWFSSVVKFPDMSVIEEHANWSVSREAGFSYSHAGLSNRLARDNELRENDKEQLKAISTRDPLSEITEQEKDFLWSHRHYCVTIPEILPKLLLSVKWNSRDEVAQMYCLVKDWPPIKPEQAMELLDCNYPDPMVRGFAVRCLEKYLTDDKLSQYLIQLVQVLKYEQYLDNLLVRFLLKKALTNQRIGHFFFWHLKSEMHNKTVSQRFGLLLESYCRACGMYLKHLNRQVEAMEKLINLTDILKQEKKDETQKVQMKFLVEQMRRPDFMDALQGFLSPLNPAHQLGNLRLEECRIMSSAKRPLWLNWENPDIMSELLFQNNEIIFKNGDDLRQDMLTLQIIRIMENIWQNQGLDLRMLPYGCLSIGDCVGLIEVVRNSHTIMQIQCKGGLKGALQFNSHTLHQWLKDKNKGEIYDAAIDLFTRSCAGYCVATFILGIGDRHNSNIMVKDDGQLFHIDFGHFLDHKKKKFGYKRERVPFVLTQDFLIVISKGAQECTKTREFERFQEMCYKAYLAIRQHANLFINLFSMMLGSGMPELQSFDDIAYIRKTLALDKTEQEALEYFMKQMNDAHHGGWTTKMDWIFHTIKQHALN
Chain of PI3K (P27986 whole entry partner): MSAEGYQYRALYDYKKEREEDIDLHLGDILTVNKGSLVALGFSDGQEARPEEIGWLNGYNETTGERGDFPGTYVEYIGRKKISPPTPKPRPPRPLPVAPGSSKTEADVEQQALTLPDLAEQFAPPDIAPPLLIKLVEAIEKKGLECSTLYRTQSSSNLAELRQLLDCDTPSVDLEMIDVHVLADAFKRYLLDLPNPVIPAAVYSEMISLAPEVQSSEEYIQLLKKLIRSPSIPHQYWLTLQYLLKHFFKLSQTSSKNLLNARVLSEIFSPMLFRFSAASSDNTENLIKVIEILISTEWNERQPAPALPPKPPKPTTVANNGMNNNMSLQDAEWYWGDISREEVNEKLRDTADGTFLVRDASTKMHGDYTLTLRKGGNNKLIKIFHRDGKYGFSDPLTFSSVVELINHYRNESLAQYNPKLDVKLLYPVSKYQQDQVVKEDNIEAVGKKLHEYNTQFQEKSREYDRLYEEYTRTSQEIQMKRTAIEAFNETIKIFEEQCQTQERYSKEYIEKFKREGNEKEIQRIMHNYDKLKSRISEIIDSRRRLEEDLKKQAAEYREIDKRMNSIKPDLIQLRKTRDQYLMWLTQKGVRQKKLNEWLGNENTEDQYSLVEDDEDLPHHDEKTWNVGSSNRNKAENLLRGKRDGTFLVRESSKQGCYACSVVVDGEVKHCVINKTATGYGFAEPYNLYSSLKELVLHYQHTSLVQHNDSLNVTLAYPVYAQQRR

What is called IC50 is the concentration that gives 50% inhibition. As to `CNCCNC(=O)Nc1ccc(-c2nc(N3CCOCC3)c3cnn(C4CCN(Cc5cccnc5)CC4)c3n2)cc1` [Compound 589, 1-[2-(methylamino)ethyl]-3-(4-{4-morpholin-4-yl-1-[1-(pyridin-3-ylmethyl)piperidin-4-yl]-1H-pyrazolo[3,4-d]pyrimidin-6-yl}phenyl)urea], the IC50 was 0.029 µM on PI3K, 1.2 µM in the assay on prostate line LNCap and 1.1 µM in the assay on breast line MDA468.

As to `O=C(Nc1ccncc1)Nc1ccc(-c2nc(N3CCOCC3)c3cnn(C4CCN(C(=O)c5cccnc5)CC4)c3n2)cc1` [Compound 591, 1-(4-{4-morpholin-4-yl-1-[1-(pyridin-3-ylcarbonyl)piperidin-4-yl]-1H-pyrazolo[3,4-d]pyrimidin-6-yl}phenyl)-3-pyridin-4-ylurea], the IC50 on PI3K was 0.015 µM; with prostate line LNCap, 0.027 µM; in the assay on breast line MDA468, less than 0.027 µM.

For `O=C(Nc1ccc(-c2nc(N3CCOCC3)c3cnn(C4CCN(C(=O)c5cccnc5)CC4)c3n2)cc1)Nc1ccccn1` [Compound 592, 1-(4-{4-morpholin-4-yl-1-[1-(pyridin-3-ylcarbonyl)piperidin-4-yl]-1H-pyrazolo[3,4-d]pyrimidin-6-yl}phenyl)-3-pyridin-2-ylurea], the IC50 at PI3K came to 0.26 µM; in the assay with prostate line LNCap, 0.095 µM; in the assay on breast line MDA468, 0.7 µM.

In the case of `CNCCNC(=O)Nc1ccc(-c2nc(N3CCOCC3)c3cnn(C4CCN(C(=O)c5cccnc5)CC4)c3n2)cc1` [Compound 593, 1-[2-(methylamino)ethyl]-3-(4-{4-morpholin-4-yl-1-[1-(pyridin-3-ylcarbonyl)piperidin-4-yl]-1H-pyrazolo[3,4-d]pyrimidin-6-yl}phenyl)urea], the IC50 at PI3K is 0.045 µM; in the assay with prostate line LNCap, 5 µM; in the assay with breast line MDA468, 9 µM.

For the molecule `Nc1ccc(-c2nc(N3CCOCC3)c3cnn(C4CCN(Cc5ccccc5)CC4)c3n2)cc1F` [Compound 594, 4-[1-(1-benzylpiperidin-4-yl)-4-morpholin-4-yl-1H-pyrazolo[3,4-d]pyrimidin-6-yl]-2-fluoroaniline], the results for the IC50 at PI3K, in the assay with prostate line LNCap and in the assay with breast line MDA468 were 1.65 µM, 2 µM and 4 µM, respectively.

Take `CCNC(=O)Nc1ccc(-c2nc(N3CCOCC3)c3cnn(C4CCN(Cc5ccccc5)CC4)c3n2)cc1F` [Compound 596, 1-{4-[1-(1-benzylpiperidin-4-yl)-4-morpholin-4-yl-1H-pyrazolo[3,4-d]pyrimidin-6-yl]-2-fluorophenyl}-3-ethylurea]: the figures for the IC50 on PI3K, in the assay on prostate line LNCap and in the assay with breast line MDA468 were 0.485 µM, 0.23 µM and 2.5 µM, respectively.

For `CNC(=O)Nc1ccc(-c2nc(N3CCOCC3)c3cnn(C4CCN(Cc5cccnc5)CC4)c3n2)cc1F` [Compound 597, 1-(2-fluoro-4-{4-morpholin-4-yl-1-[1-(pyridin-3-ylmethyl)piperidin-4-yl]-1H-pyrazolo[3,4-d]pyrimidin-6-yl}phenyl)-3-methylurea], the IC50 on PI3K was 0.246 µM; with prostate line LNCap, 0.027 µM; in the assay on breast line MDA468 it was 0.18 µM.

With `O=C(Nc1ccccc1)Nc1ccc(-c2nc(N3CCOCC3)c3cnn(C4CCN(Cc5cccnc5)CC4)c3n2)cc1F` [Compound 598, 1-(2-fluoro-4-{4-morpholin-4-yl-1-[1-(pyridin-3-ylmethyl)piperidin-4-yl]-1H-pyrazolo[3,4-d]pyrimidin-6-yl}phenyl)-3-phenylurea], the IC50 is 0.041 µM at PI3K, 0.07 µM in the assay on prostate line LNCap and 0.36 µM in the assay with breast line MDA468.

Consider `O=C(Nc1ccncc1)Nc1ccc(-c2nc(N3CCOCC3)c3cnn(C4CCN(Cc5cccnc5)CC4)c3n2)cc1F` [Compound 599, 1-(2-fluoro-4-{4-morpholin-4-yl-1-[1-(pyridin-3-ylmethyl)piperidin-4-yl]-1H-pyrazolo[3,4-d]pyrimidin-6-yl}phenyl)-3-pyridin-4-ylurea], for which the values for the concentration for half-maximal inhibition (IC50) on PI3K, in the assay on prostate line LNCap and in the assay on breast line MDA468 were 0.034 µM, less than 0.027 µM and 0.082 µM, respectively.

For the molecule `CNC(=O)Nc1ccc(-c2nc(N3CCOCC3)c3cnn(C4CCN(C(=O)c5ccccc5Cl)CC4)c3n2)cc1` [Compound 601, 1-(4-{1-[1-(2-chlorobenzoyl)piperidin-4-yl]-4-morpholin-4-yl-1H-pyrazolo[3,4-d]pyrimidin-6-yl}phenyl)-3-methylurea], the IC50 at PI3K is 0.079 µM; with prostate line LNCap it was less than 0.027 µM; in the assay with breast line MDA468, less than 0.027 µM.

On to `CNC(=O)Nc1ccc(-c2nc(N3CCOCC3)c3cnn(C4CCN(C(=O)c5ccccc5C)CC4)c3n2)cc1` [Compound 602, 1-methyl-3-(4-{1-[1-(2-methylbenzoyl)piperidin-4-yl]-4-morpholin-4-yl-1H-pyrazolo[3,4-d]pyrimidin-6-yl}phenyl)urea], for which the IC50 at PI3K is 0.093 µM; in the assay on prostate line LNCap, less than 0.027 µM; with breast line MDA468, 0.07 µM.

Regarding `CNC(=O)Nc1ccc(-c2nc(N3CCOCC3)c3cnn(C4CCN(C(=O)c5cccc(F)c5)CC4)c3n2)cc1` [Compound 603, 1-(4-{1-[1-(3-fluorobenzoyl)piperidin-4-yl]-4-morpholin-4-yl-1H-pyrazolo[3,4-d]pyrimidin-6-yl}phenyl)-3-methylurea], the IC50 at PI3K is 0.088 µM; in the assay on prostate line LNCap, less than 0.027 µM; with breast line MDA468, 0.08 µM.

Regarding `CNC(=O)Nc1ccc(-c2nc(N3CCOCC3)c3cnn(C4CCN(C(=O)c5cccc(Cl)c5)CC4)c3n2)cc1` [Compound 604, 1-(4-{1-[1-(3-chlorobenzoyl)piperidin-4-yl]-4-morpholin-4-yl-1H-pyrazolo[3,4-d]pyrimidin-6-yl}phenyl)-3-methylurea], the IC50 is 0.053 µM at PI3K, less than 0.027 µM in the assay on prostate line LNCap and 0.05 µM in the assay on breast line MDA468.

For `CNC(=O)Nc1ccc(-c2nc(N3CCOCC3)c3cnn(C4CCN(C(=O)c5cccc(C(F)(F)F)c5)CC4)c3n2)cc1` [Compound 605, 1-methyl-3-[4-(4-morpholin-4-yl-1-{1-[3-(trifluoromethyl)benzoyl]piperidin-4-yl}-1H-pyrazolo[3,4-d]pyrimidin-6-yl)phenyl]urea], the IC50 was determined as 0.076 µM at PI3K, 0.045 µM in the assay with prostate line LNCap and 0.16 µM in the assay with breast line MDA468.

Regarding `CNC(=O)Nc1ccc(-c2nc(N3CCOCC3)c3cnn(C4CCN(C(=O)c5ccc(Br)cc5)CC4)c3n2)cc1` [Compound 606, 1-(4-{1-[1-(4-bromobenzoyl)piperidin-4-yl]-4-morpholin-4-yl-1H-pyrazolo[3,4-d]pyrimidin-6-yl}phenyl)-3-methylurea], the IC50 at PI3K was 0.034 µM; with prostate line LNCap it was 0.052 µM; in the assay with breast line MDA468, 0.18 µM.

In the case of `CNC(=O)Nc1ccc(-c2nc(N3CCOCC3)c3cnn(C4CCN(C(=O)c5ccc(F)cc5)CC4)c3n2)cc1` [Compound 607, 1-(4-{1-[1-(4-fluorobenzoyl)piperidin-4-yl]-4-morpholin-4-yl-1H-pyrazolo[3,4-d]pyrimidin-6-yl}phenyl)-3-methylurea], the IC50 on PI3K came out at 0.108 µM; in the assay on prostate line LNCap, 0.027 µM; with breast line MDA468, 0.09 µM.

For the molecule `CNC(=O)Nc1ccc(-c2nc(N3CCOCC3)c3cnn(C4CCN(C(=O)c5ccc(Cl)cc5)CC4)c3n2)cc1` [Compound 608, 1-(4-{1-[1-(4-chlorobenzoyl)piperidin-4-yl]-4-morpholin-4-yl-1H-pyrazolo[3,4-d]pyrimidin-6-yl}phenyl)-3-methylurea], the IC50 on PI3K was determined as 0.042 µM; with prostate line LNCap, 0.052 µM; with breast line MDA468, 0.4 µM.
